Consider 16 compounds from patent publication US20260265233A1, “BENZOTHIOPHENE DERIVATIVES AS RXFP1 AGONISTS” (BRISTOL-MYERS SQUIBB COMPANY, priority 2021, published 2026).

SMILES strings stand for the structures.

For this experiment, the target named is T1, human RXFP1 (Homo sapiens, UniProt Q9HBX9).
T1 construct: expressed in transfected cells
T1 sequence (Q9HBX9 1-757): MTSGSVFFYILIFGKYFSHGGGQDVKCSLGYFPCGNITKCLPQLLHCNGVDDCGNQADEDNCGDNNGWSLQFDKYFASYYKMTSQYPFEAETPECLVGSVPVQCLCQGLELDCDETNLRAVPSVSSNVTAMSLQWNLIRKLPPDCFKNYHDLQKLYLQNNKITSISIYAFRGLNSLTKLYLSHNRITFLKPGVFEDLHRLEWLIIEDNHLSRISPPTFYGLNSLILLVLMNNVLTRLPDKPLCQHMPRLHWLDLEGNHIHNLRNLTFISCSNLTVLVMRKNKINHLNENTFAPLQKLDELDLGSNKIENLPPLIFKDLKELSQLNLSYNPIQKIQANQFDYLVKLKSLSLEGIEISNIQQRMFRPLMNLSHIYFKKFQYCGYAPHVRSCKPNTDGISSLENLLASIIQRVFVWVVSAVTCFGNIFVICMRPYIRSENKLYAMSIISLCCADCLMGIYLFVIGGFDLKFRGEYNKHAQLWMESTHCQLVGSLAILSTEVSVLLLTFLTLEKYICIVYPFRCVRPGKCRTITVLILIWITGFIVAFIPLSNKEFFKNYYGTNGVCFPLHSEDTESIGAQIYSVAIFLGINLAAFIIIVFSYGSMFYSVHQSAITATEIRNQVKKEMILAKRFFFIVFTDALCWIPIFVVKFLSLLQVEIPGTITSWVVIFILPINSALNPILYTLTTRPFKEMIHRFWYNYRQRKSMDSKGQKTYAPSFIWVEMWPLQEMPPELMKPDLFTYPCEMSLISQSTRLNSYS
Briefly: hRXFP1 HEK293 cAMP assay (HTRF). It is filed as cell-based. The settings on record: HEK293 cells stably expressing human RXFP1; 30 min at rt; intracellular cAMP by HTRF. Put shortly:
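Agonism is measured as cAMP by HTRF, quantified from a standard curve via the 665/590 nm ratio and fitted with a four-parameter logistic equation. Compounds (0.010 nM to 50 μM final, 2% DMSO) were applied for 30 min at rt to human RXFP1-expressing HEK293 cells in assay buffer containing 0.5 mM IBMX.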
`COc1ccc(-c2cc([C@@H](C)O)on2)cc1C(=O)Nc1c(C(=O)Nc2ccc(F)c(C(F)(F)F)c2)sc2cc(C(F)(F)F)ccc12` [Example 275, (R)-N-(4-fluoro-3-(trifluoromethyl)phenyl)-3-(5-(5-(1-hydroxyethyl)isoxazol-3-yl)-2-methoxy-benzamido)-6-(trifluoromethyl) benzo[b] thiophene-2-carboxamide] registered an EC50 of 440 nM.

In turn, `COc1ccc(-c2cc(C(C)(C)O)on2)cc1C(=O)Nc1c(C(=O)Nc2ccc(F)c(C(F)(F)F)c2)sc2cc(C(F)(F)F)ccc12` [Example 276, N-(4-fluoro-3-(trifluoromethyl)phenyl)-3-(5-(5-(2-hydroxypropan-2-yl)isoxazol-3-yl)-2-methoxy-benzamido)-6-(trifluoromethyl) benzo[b] thiophene-2-carboxamide] returned an EC50 of 204 nM.

As for `COc1ccc(-c2nc(N3CCOCC3)no2)cc1C(=O)Nc1c(C(=O)Nc2ccc(F)c(C(F)(F)F)c2)sc2cc(C(F)(F)F)ccc12` [Example 277, N-[4-fluoro-3-(trifluoromethyl)phenyl]-3-{2-methoxy-5-[3-(morpholin-4-yl)-1,2,4-oxadiazol-5-yl]benzamido}-6-(trifluoromethyl)-1-benzothiophene-2-carboxamide], it took 398 nM to reach a half-maximal effect (EC50).

Turning to `COc1ccc(C2=NOC3(CCN(C(=O)CO)C3)C2)cc1C(=O)Nc1c(C(=O)Nc2ccc(F)c(C(F)(F)F)c2)sc2cc(C(F)(F)F)ccc12` (stereo not shown) [Example 278, N-[4-fluoro-3-(trifluoromethyl)phenyl]-3-{5-[7-(2-hydroxyacetyl)-1-oxa-2,7-diazaspiro[4.4]non-2-en-3-yl]-2-methoxy-benzamido}-6-(trifluoromethyl)-1-benzothiophene-2-carboxamide], the EC50 came to 408 nM.

`COc1ccc(C2=NOC3(CCN(C(=O)C(C)(C)O)C3)C2)cc1C(=O)Nc1c(C(=O)Nc2ccc(F)c(C(F)(F)F)c2)sc2cc(C(F)(F)F)ccc12` (stereo not shown) [Example 279, N-[4-fluoro-3-(trifluoromethyl)phenyl]-3-{5-[7-(2-hydroxy-2-methylpropanoyl)-1-oxa-2,7-diazaspiro[4.4]non-2-en-3-yl]-2-methoxy-benzamido}-6-(trifluoromethyl)-1-benzothiophene-2-carboxamide]: the midpoint of the response, the EC50, lay at 582 nM.

Turning to `COc1ccc(C2=NC(C(=O)N3CC(C)(O)C3)CO2)cc1C(=O)Nc1c(C(=O)Nc2ccc(F)c(C(F)(F)F)c2)sc2cc(C(F)(F)F)ccc12` (stereo not shown) [Example 280, N-[4-fluoro-3-(trifluoromethyl)phenyl]-3-{5-[4-(3-hydroxy-3-methylazetidine-1-carbonyl)-4,5-dihydro-1,3-oxazol-2-yl]-2-methoxy-benzamido}-6-(trifluoromethyl)-1-benzothiophene-2-carboxamide], the midpoint of the response, the EC50, lay at 44.1 nM.

In the case of `COc1ccc(C2=NC(C(=O)N3CC(C(C)(C)O)C3)CO2)cc1C(=O)Nc1c(C(=O)Nc2ccc(F)c(C(F)(F)F)c2)sc2cc(C(F)(F)F)ccc12` (stereo not shown) [Example 281, N-[4-fluoro-3-(trifluoromethyl)phenyl]-3-(5-{4-[3-(2-hydroxypropan-2-yl)azetidine-1-carbonyl]-4,5-dihydro-1,3-oxazol-2-yl}-2-methoxy-benzamido)-6-(trifluoromethyl)-1-benzothiophene-2-carboxamide], the concentration giving a half-maximal response (EC50) is 95.1 nM.

Compound `COc1ccc(C2=NC(C(=O)N3CC(CO)C3)CO2)cc1C(=O)Nc1c(C(=O)Nc2ccc(F)c(C(F)(F)F)c2)sc2cc(C(F)(F)F)ccc12` (stereo not shown) [Example 282, N-[4-fluoro-3-(trifluoromethyl)phenyl]-3-(5-{4-[3-(hydroxymethyl)azetidine-1-carbonyl]-4,5-dihydro-1,3-oxazol-2-yl}-2-methoxy-benzamido)-6-(trifluoromethyl)-1-benzothiophene-2-carboxamide] displayed an EC50 of 9.6 nM.

Take `COc1ccc(C2=NOC3(C2)CN(C(=O)C(C)(C)CO)C3)cc1C(=O)Nc1c(C(=O)Nc2ccc(F)c(C(F)(F)F)c2)sc2cc(C(F)(F)F)ccc12` [Example 283, N-(4-fluoro-3-(trifluoromethyl)phenyl)-3-(5-(2-(3-hydroxy-2,2-dimethyl-propanoyl)-5-oxa-2,6-diazaspiro[3.4]oct-6-en-7-yl)-2-methoxy-benzamido)-6-(trifluoromethyl) benzo[b] thiophene-2-carboxamide]: the midpoint of the response, the EC50, lay at 1120 nM.

Turning to `COc1ccc(C2=NOC3(C2)CN(C(=O)C(C)(C)O)C3)cc1C(=O)Nc1c(C(=O)Nc2ccc(F)c(C(F)(F)F)c2)sc2cc(C(F)(F)F)ccc12` [Example 284, N-(4-fluoro-3-(trifluoromethyl)phenyl)-3-(5-(2-(2-hydroxy-2-methylpropanoyl)-5-oxa-2,6-diazaspiro[3.4]oct-6-en-7-yl)-2-methoxy-benzamido)-6-(trifluoromethyl) benzo[b] thiophene-2-carboxamide], the concentration for a half-maximal effect (EC50) is 1300 nM.

Consider `COc1ccc(C2=NOC3(C2)CN(C(=O)CO)C3)cc1C(=O)Nc1c(C(=O)Nc2ccc(F)c(C(F)(F)F)c2)sc2cc(C(F)(F)F)ccc12` [Example 285, N-(4-fluoro-3-(trifluoromethyl)phenyl)-3-(5-(2-(2-hydroxyacetyl)-5-oxa-2,6-diazaspiro[3.4]oct-6-en-7-yl)-2-methoxy-benzamido)-6-(trifluoromethyl) benzo[b] thiophene-2-carboxamide], for which the midpoint of the response, the EC50, lay at 1860 nM.

`COc1ccc(C2=NOC3(CNC3)C2)cc1C(=O)Nc1c(C(=O)Nc2ccc(F)c(C(F)(F)F)c2)sc2cc(C(F)(F)F)ccc12` [Example 286, N-(4-fluoro-3-(trifluoromethyl)phenyl)-3-(2-methoxy-5-(5-oxa-2,6-diazaspiro[3.4]oct-6-en-7-yl)benzamido)-6-(trifluoromethyl) benzo[b] thiophene-2-carboxamide] had an EC50 of 5000 nM.

`COc1ccc(-c2cc(CO)on2)cc1C(=O)Nc1c(C(=O)Nc2ccc(F)c(C(F)(F)F)c2)sc2cc(C(F)(F)F)ccc12` [Example 287, N-(4-fluoro-3-(trifluoromethyl)phenyl)-3-(5-(5-(hydroxymethyl)isoxazol-3-yl)-2-methoxy-benzamido)-6-(trifluoromethyl) benzo[b] thiophene-2-carboxamide]: the half-maximal effective concentration (EC50) turned out to be 1260 nM.

For `COc1ccc(-c2cc(C(=O)O)ccc2F)cc1C(=O)Nc1c(C(=O)Nc2ccc(F)c(C(F)(F)F)c2)sc2nc(C)ccc12` [Example 288, 6-fluoro-3′-[(2-{[4-fluoro-3-(trifluoromethyl)phenyl]carbamoyl}-6-methylthieno[2,3-b]pyridin-3-yl)carbamoyl]-4′-methoxy-[1,1′-biphenyl]-3-carboxylic acid], the EC50 was found to be 4260 nM.

`COc1ccc(-c2cc(C(=O)O)ccc2F)cc1C(=O)Nc1c(C(=O)Nc2ccc(F)c(C(F)(F)F)c2)sc2ncccc12` [Example 289, 6-fluoro-3′-[(2-{[4-fluoro-3-(trifluoromethyl)phenyl]carbamoyl}thieno[2,3-b]pyridin-3-yl)carbamoyl]-4′-methoxy-[1,1′-biphenyl]-3-carboxylic acid] yielded a 50% effective concentration (EC50) of 2050 nM. This EC50 is about 2.1-fold lower than that of the compound before.

For `COc1ccc(N2CCCC2=O)cc1C(=O)Nc1c(C(=O)Nc2ccc(F)c(C(F)(F)F)c2)sc2cc(C(F)(F)F)ccc12` [Example 290, N-[4-fluoro-3-(trifluoromethyl)phenyl]-3-[2-methoxy-5-(2-oxopyrrolidin-1-yl)benzamido]-6-(trifluoromethyl)-1-benzothiophene-2-carboxamide], the concentration giving a half-maximal response (EC50) stood at 1410 nM.
